Measured values taken from patent US20260262643A1, “HERBICIDAL BENZOXAZINES” (FMC CORPORATION, priority 2022, published 2026).

Key:
[1] = tested on: soybean; test: Test C postemergence; format: in vivo, Glycine max; conditions: 10 days, 0 to 100 scale (0 no effect, 100 complete control)
Outline: (§1)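 Soil-applied (pre) and foliar (post, 1–2 leaf, 2–10 cm) sprays; surfactant-containing non-phytotoxic solvent vehicle; loam/sand substrate. Readout: visual % control at 10 d, greenhouse, versus untreated.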

[2] = tested on: kochia; test: Test C postemergence; format: in vivo, Bassia scoparia; conditions: 10 days, 0 to 100 scale (0 no effect, 100 complete control)
Outline: as §1

[3] = tested on: foxtail, giant; test: Test C preemergence; format: in vivo, Setaria faberi
Excerpt: (§2) Seeds of plant species selected from barnyardgrass (Echinochloa crusgalli), blackgrass (Alopecurus myosuroides), corn (Zea mays), foxtail, giant (giant foxtail, Setaria faberi), green foxtail (Setaria viridis), goosegrass (Eleusine indica), kochia (Bassia scoparia), oat, wild (wild oat, Avena fatua), pigweed, palmer (palmer amaranth, palmer pigweed, Amaranthus palmeri), Pigweed, Redroot (redroot pigweed, Amaranthus retroflexus), ragweed (common ragweed, Ambrosia artemisiifolia), ryegrass, Italian ([…] ryegrass, Lolium multiflorum), soybean (Glycine max), and wheat (Triticum aestivum) were planted into a blend of loam soil and sand and treated preemergence with a directed soil spray using test chemicals formulated in a non-phytotoxic solvent mixture which included a surfactant. At the same time, plants selected from these crops and weed species and also galium (catchweed bedstraw, Galium aparine) and horseweed (Erigeron canadensis) were planted in pots containing the same blend of loam soil and sand and treated with postemergence applications of test chemicals formulated in the same manner. Plants ranged in height from 2 to 10 cm and were in the one- to two-leaf stage for the postemergence treatment. Treated plants and untreated controls were maintained in a greenhouse for 10 days, after which time all treated plants were compared to untreated controls and visually evaluated for injury. Plant response ratings, summarized in Table C, are based on a 0 to 100 scale where 0 is no effect and 100 is complete control. A dash (-) response means no test result.

[4] = tested on: rice; test: Test D flooded paddy test; format: in vivo, Oryza sativa; conditions: 250 g ai/ha, applied to paddy water, visual rating after 13 to 14 days, scale 0 to 100 (0 no effect, 100 complete control)
Outline: (§3)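 2-leaf plants; flood 3 cm above soil; compound dosed into paddy water; greenhouse 13–14 d; visual rating vs controls, 0–100 (100 = complete control); dash = not tested.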

[5] = tested on: ryegrass, Italian; test: Test C preemergence; format: in vivo, Lolium multiflorum
Outline: as §1

[6] = tested on: blackgrass; test: Test C preemergence; format: in vivo, Alopecurus myosuroides
Outline: as §1

[7] = tested on: corn; test: Test C preemergence; format: in vivo, Zea mays
Outline: as §1

[8] = tested on: sedge, umbrella; test: Test D flooded paddy test; format: in vivo, Cyperus difformis; conditions: 250 g ai/ha, applied to paddy water, visual rating after 13 to 14 days, scale 0 to 100 (0 no effect, 100 complete control)
Outline: as §3

[9] = tested on: barnyardgrass; test: Test C preemergence; format: in vivo, Echinochloa crusgalli
Outline: as §1

[10] = tested on: wheat; test: Test C preemergence; format: in vivo, Triticum aestivum
Outline: as §1

[11] = tested on: ryegrass, Italian; test: Test C postemergence; format: in vivo, Lolium multiflorum; conditions: 10 days, 0 to 100 scale (0 no effect, 100 complete control)
Outline: as §1

[12] = tested on: ragweed; test: Test C postemergence; format: in vivo, Ambrosia artemisiifolia; conditions: 10 days, 0 to 100 scale (0 no effect, 100 complete control)
Outline: as §1

[13] = tested on: oat, wild; test: Test C preemergence; format: in vivo, Avena fatua
Outline: as §1

[14] = tested on: barnyardgrass; test: Test C postemergence; format: in vivo, Echinochloa crusgalli; conditions: 10 days, 0 to 100 scale (0 no effect, 100 complete control)
Outline: as §1

[15] = tested on: pigweed, palmer; test: Test C postemergence; format: in vivo, Amaranthus palmeri; conditions: 10 days, 0 to 100 scale (0 no effect, 100 complete control)
Outline: as §1

[16] = tested on: galium; test: Test C postemergence; format: in vivo, Galium aparine; conditions: 10 days, 0 to 100 scale (0 no effect, 100 complete control)
Outline: as §1

[17] = tested on: corn; test: Test C postemergence; format: in vivo, Zea mays; conditions: 10 days, 0 to 100 scale (0 no effect, 100 complete control)
Outline: as §1

[18] = tested on: soybean; test: Test C preemergence; format: in vivo, Glycine max
Outline: as §1

[19] = tested on: ragweed; test: Test C preemergence; format: in vivo, Ambrosia artemisiifolia
Outline: as §1

[20] = tested on: pigweed, palmer; test: Test C preemergence; format: in vivo, Amaranthus palmeri
Outline: as §1

[21] = tested on: horseweed; test: Test C postemergence; format: in vivo, Erigeron canadensis; conditions: 10 days, 0 to 100 scale (0 no effect, 100 complete control)
Outline: as §1

[22] = tested on: blackgrass; test: Test C postemergence; format: in vivo, Alopecurus myosuroides; conditions: 10 days, 0 to 100 scale (0 no effect, 100 complete control)
Outline: as §1

[23] = tested on: wheat; test: Test C postemergence; format: in vivo, Triticum aestivum; conditions: 10 days, 0 to 100 scale (0 no effect, 100 complete control)
Outline: as §1

[24] = tested on: kochia; test: Test C preemergence; format: in vivo, Bassia scoparia
Outline: as §1

[25] = tested on: barnyardgrass; test: Test D flooded paddy test; format: in vivo, Echinochloa crus-galli; conditions: 250 g ai/ha, applied to paddy water, visual rating after 13 to 14 days, scale 0 to 100 (0 no effect, 100 complete control)
Outline: as §3

[26] = tested on: oat, wild; test: Test C postemergence; format: in vivo, Avena fatua; conditions: 10 days, 0 to 100 scale (0 no effect, 100 complete control)
Outline: as §1

[27] = tested on: foxtail, giant; test: Test C postemergence; format: in vivo, Setaria faberi; conditions: 10 days, 0 to 100 scale (0 no effect, 100 complete control)
Excerpt: as §2

[28] = tested on: ducksalad; test: Test D flooded paddy test; format: in vivo, Heteranthera limosa; conditions: 250 g ai/ha, applied to paddy water, visual rating after 13 to 14 days, scale 0 to 100 (0 no effect, 100 complete control)
Outline: as §3

[29] = 500 g ai/ha, preemergence, 0 to 100 scale (0 no effect, 100 complete control)
[30] = Preemergence, 125 g ai/ha, 0 to 100 scale, 0 no effect, 100 complete control

SMILES: CCc1ncn(-c2cccc(C(=O)N3CC(C(F)(F)F)Oc4c(C)cccc43)c2)n1 (stereo not shown) [Compound 344]
- Plant response rating, Soybean ([1]; 500 g ai/ha, postemergence): 100
- Plant response rating, Soybean ([1]; Postemergence, 125 g ai/ha): 80
- Plant response rating, Kochia ([2]; 500 g ai/ha, postemergence): 80
- Plant response rating, Kochia ([2]; Postemergence, 125 g ai/ha): 70
- Foxtail, Giant plant response rating [3, 29]: 100
- Plant response rating, Foxtail, Giant [3, 30]: 100
- Plant response rating, Rice (Flood) [4]: 0
- Ryegrass, Italian plant response rating [5, 29]: 100
- Plant response rating, Ryegrass, Italian [5, 30]: 90
- Blackgrass plant response rating [6, 29]: 100
- Plant response rating, Blackgrass [6, 30]: 90
- Corn plant response rating [7, 29]: 30
- Plant response rating, Corn [7, 30]: 20
- Plant response rating, Sedge, Umbrella (Flood) [8]: 70
- Barnyardgrass plant response rating [9, 29]: 100
- Plant response rating, Barnyardgrass [9, 30]: 80
- Wheat plant response rating [10, 29]: 80
- Plant response rating, Wheat [10, 30]: 40
- Plant response rating, Ryegrass, Italian ([11]; 500 g ai/ha, postemergence): 100
- Plant response rating, Ryegrass, Italian ([11]; Postemergence, 125 g ai/ha): 80
- Plant response rating, Ragweed ([12]; 500 g ai/ha, postemergence): 70
- Plant response rating, Ragweed ([12]; Postemergence, 125 g ai/ha): 70
- Oat, Wild plant response rating [13, 29]: 90
- Plant response rating, Oat, Wild [13, 30]: 0
- Plant response rating, Barnyardgrass ([14]; 500 g ai/ha, postemergence): 70
- Plant response rating, Barnyardgrass ([14]; Postemergence, 125 g ai/ha): 40
- Plant response rating, Pigweed, Palmer ([15]; 500 g ai/ha, postemergence): 40
- Plant response rating, Pigweed, Palmer ([15]; Postemergence, 125 g ai/ha): 20
- Plant response rating, Galium ([16]; 500 g ai/ha, postemergence): 100
- Plant response rating, Galium ([16]; Postemergence, 125 g ai/ha): 90
- Plant response rating, Corn ([17]; 500 g ai/ha, postemergence): 90
- Plant response rating, Corn ([17]; Postemergence, 125 g ai/ha): 30
- Soybean plant response rating [18, 29]: 50
- Plant response rating, Soybean [18, 30]: 0
- Ragweed plant response rating [19, 29]: 50
- Plant response rating, Ragweed [19, 30]: 0
- Pigweed, Palmer plant response rating [20, 29]: 100
- Plant response rating, Pigweed, Palmer [20, 30]: 90
- Plant response rating, Horseweed ([21]; 500 g ai/ha, postemergence): 30
- Plant response rating, Horseweed ([21]; Postemergence, 125 g ai/ha): 30
- Plant response rating, Blackgrass ([22]; 500 g ai/ha, postemergence): 90
- Plant response rating, Blackgrass ([22]; Postemergence, 125 g ai/ha): 80
- Plant response rating, Wheat ([23]; 500 g ai/ha, postemergence): 80
- Plant response rating, Wheat ([23]; Postemergence, 125 g ai/ha): 30
- Kochia plant response rating [24, 29]: 100
- Plant response rating, Kochia [24, 30]: 60
- Plant response rating, Barnyardgrass (Flood) [25]: 25
- Plant response rating, Oat, Wild ([26]; 500 g ai/ha, postemergence): 90
- Plant response rating, Oat, Wild ([26]; Postemergence, 125 g ai/ha): 60
- Plant response rating, Foxtail, Giant ([27]; 500 g ai/ha, postemergence): 90
- Plant response rating, Foxtail, Giant ([27]; Postemergence, 125 g ai/ha): 70
- Plant response rating, Ducksalad (Flood) [28]: 30
